Assay [1] addresses T1, Peroxisome proliferator-activated receptor gamma (Homo sapiens, UniProt P37231).
T1 sequence (P37231 whole entry): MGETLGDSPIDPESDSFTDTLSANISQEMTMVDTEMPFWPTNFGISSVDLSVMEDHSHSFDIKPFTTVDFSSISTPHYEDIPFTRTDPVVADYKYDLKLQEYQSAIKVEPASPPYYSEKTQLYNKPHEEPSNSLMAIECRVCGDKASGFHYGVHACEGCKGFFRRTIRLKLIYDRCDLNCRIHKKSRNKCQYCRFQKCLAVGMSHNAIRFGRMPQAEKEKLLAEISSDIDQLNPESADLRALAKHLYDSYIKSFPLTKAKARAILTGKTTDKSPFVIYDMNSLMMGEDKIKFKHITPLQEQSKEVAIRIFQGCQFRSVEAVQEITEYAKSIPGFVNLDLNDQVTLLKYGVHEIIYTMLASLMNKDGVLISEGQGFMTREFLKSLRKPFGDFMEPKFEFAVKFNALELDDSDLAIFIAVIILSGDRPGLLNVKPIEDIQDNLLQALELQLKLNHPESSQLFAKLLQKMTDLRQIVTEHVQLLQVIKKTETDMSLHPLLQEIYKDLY

The target in assay [2] is T2, Peroxisome proliferator-activated receptor alpha (Homo sapiens, UniProt Q07869).
T2 sequence (Q07869 whole entry): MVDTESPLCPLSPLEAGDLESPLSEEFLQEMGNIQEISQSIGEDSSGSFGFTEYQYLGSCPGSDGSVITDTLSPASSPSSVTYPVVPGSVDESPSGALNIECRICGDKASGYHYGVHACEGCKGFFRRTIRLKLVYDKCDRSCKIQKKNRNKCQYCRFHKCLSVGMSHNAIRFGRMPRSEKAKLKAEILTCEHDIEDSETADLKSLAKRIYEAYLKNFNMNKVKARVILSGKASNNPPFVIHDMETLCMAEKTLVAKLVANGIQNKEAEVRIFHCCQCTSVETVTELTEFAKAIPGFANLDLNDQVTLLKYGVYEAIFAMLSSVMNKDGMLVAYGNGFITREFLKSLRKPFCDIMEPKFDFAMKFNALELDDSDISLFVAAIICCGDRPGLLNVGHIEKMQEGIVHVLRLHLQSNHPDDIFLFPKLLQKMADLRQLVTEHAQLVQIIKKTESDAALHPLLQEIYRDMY
Kind of assay: (§1) Agonist activity at human PPARalpha by GAL4 transactivation assay. In kind it is functional.

Assay [3] concerns the target T3, Peroxisome proliferator-activated receptor alpha (Homo sapiens) (UniProt Q07869).
T3 sequence (whole entry): T2 sequence (Q07869 whole entry)
The description is as §1. In kind it is functional.

A word on the Ki: it is the equilibrium dissociation constant of an inhibitor or competing ligand from its target. Read a high Ki as a looser hold on the target. As usually defined, the EC50 is the concentration that produces a half-maximal response.

The source made the active and inactive calls. The rule behind the calls is not given here.

On to `CCO[C@@H](Cc1ccc(OCCc2ccc(OS(C)(=O)=O)cc2)cc1)C(=O)O` [TESAGLITAZAR], for which the Ki in assay [1] stood at 18 nM. Further, the EC50 in assay [2] was found to be 414 nM.
Take `COC(=O)C(Cc1ccc(OCCN2CCC(C)(C)c3cc(C(=O)c4ccccc4)ccc32)cc1)C(=O)OC`: affinity in assay [1] was put at a Ki of 10000 nM. Further, the result in assay [3] was inactive.
For `COC(=O)C(Cc1ccc(OCCN2CCC(C)(C)c3cc(/C(=N\O)c4ccccc4)ccc32)cc1)C(=O)OC`, in that order: 10000 nM and “inactive”.
In turn, `CCOC(=O)C(Cc1ccc(OCCN2CCC(C)(C)c3cc(/C(=N\O)c4ccccc4)ccc32)cc1)OCC` (stereo not drawn) registered a Ki in assay [1] of 618 nM. The same compound displayed an EC50 in assay [2] of 189 nM.
